The values that follow come from US10870651B2, “Inhibitors of cyclin-dependent kinase 7 (CDK7)” (Dana-Farber Cancer Institute, Inc., priority 2014, dated 2020).

pIC50: −log10 of the molar value.

The target of test [1] is T1, CDK7 (Homo sapiens (Human), UniProt P50613). Description: Inhibition of kinase activity, CDK7. In kind it is biochemical. The conditions noted are these: co-factors cyclin H and MNAT1. The method, then:
(§1) Compounds of the invention were assayed for activity against a variety of different kinases. Exemplary results are presented as calculated IC50 values (Table A1 & A2). In Table A1 and A2 “A” represents a calculated IC50 value of less than 100 nM; “B” represents a calculated IC50 value of greater than or equal to 100 nM and less than 1 μM; and “C” represents a calculated IC50 value of 1 μM or greater. The co-factors used for each kinase in the assays were as follows: CDK7: cyclin H and MNAT1; CDK2: cyclin A; CDK9: cyclin K.

Another test has as its target CDK2 (Homo sapiens (Human), UniProt P24941). Description: Inhibition of kinase activity, CDK2. The following applies: co-factor cyclin A. The class given is biochemical. The procedure: as §1
Another test has as its target CDK9 (Homo sapiens (Human), UniProt P50750). In words: Inhibition of kinase activity, CDK9. In kind it is biochemical. The conditions noted are these: co-factor cyclin K. The method, then: as §1
A further test addresses CHEK2 (Homo sapiens (Human), UniProt O96017). In words: Inhibition of kinase activity, CHEK2. In kind it is biochemical. The method, then: as §1
The target of a further test is FGR (Homo sapiens (Human), UniProt P09769). Description: Inhibition of kinase activity, FGR. In kind it is biochemical. The method, then:
as §1

The target of the next test is HIPK4 (Homo sapiens (Human), UniProt Q8NE63). In words: Inhibition of kinase activity, HIPK4. The class given is biochemical. The method, then:
as §1

The target in the next test is PRKCQ (Homo sapiens (Human), UniProt Q04759). Description: Inhibition of kinase activity, PRKCQ. The class given is biochemical. The method, then: as §1
Sequence of PRKCQ (Q04759 whole entry): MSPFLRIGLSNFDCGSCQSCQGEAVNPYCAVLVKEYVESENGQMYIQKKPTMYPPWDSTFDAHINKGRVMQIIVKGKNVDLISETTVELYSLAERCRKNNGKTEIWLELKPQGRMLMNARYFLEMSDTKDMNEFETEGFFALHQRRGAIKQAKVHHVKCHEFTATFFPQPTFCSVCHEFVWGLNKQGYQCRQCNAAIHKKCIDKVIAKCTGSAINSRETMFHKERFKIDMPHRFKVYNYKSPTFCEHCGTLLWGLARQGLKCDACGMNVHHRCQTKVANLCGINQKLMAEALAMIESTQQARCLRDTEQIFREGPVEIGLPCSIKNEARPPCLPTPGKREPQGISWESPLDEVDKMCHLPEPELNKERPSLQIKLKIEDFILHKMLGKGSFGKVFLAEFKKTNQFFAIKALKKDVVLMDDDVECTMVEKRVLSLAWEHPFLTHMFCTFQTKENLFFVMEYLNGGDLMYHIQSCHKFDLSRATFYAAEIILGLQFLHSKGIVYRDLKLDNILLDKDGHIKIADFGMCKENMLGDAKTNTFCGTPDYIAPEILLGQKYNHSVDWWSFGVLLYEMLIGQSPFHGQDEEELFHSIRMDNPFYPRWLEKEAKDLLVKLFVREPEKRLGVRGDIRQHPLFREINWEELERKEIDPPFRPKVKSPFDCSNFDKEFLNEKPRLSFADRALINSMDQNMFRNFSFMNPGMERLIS
Another test concerns the target RET (Homo sapiens (Human), UniProt P07949). In words: Inhibition of kinase activity, RET. The class given is biochemical. The procedure: as §1
The next test addresses SRC (Homo sapiens (Human), UniProt P12931). In words: Inhibition of kinase activity, SRC. In kind it is biochemical. The procedure:
as §1

The target in the next test is MELK (Homo sapiens (Human), UniProt Q14680). In words: Inhibition of kinase activity, MELK. In kind it is biochemical. The procedure: as §1
Sequence of MELK (Q14680 whole entry): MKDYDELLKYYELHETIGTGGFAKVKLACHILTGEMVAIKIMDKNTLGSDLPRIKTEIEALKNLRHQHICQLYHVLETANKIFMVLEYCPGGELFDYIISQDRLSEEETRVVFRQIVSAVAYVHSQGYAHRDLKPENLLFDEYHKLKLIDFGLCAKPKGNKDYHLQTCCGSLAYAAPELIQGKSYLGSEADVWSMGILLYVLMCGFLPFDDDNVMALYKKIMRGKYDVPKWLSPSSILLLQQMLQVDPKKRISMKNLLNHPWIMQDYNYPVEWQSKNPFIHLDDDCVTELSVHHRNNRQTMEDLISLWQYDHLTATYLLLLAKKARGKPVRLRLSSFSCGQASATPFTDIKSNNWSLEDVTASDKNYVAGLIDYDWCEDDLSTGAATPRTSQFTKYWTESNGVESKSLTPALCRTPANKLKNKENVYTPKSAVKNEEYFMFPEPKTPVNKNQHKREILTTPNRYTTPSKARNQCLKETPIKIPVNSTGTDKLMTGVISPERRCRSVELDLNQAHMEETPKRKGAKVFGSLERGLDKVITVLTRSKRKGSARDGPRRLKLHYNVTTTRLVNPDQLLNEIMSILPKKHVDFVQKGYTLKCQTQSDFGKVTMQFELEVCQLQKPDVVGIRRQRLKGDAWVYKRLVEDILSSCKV
In test [2] the test system is Jurkat T-cell acute lymphoblastic leukemia. Description: Inhibition of cell proliferation (CellTiter-Glo), Jurkat. In kind it is cell-based. The conditions noted are these: Homo sapiens, 72 hours incubation, CellTiter-Glo, 25,000 cells/well. The procedure: (§2) Exemplary compounds of the invention were tested at different concentrations. Cells were plated in 96-well plates at the following seeding densities: Jurkat T-cell acute lymphoblastic leukemia 25,000 cells/well; HCT116 colorectal carcinoma 8,000 cells/well; Kelly neuroblastoma 4,000 cells/well. The cells were treated with various concentration of compounds (ranging from 1 nM to 10 μM). DMSO solvent with no compound served as a control. Following incubation for 72 hours, cell survival following treatment with exemplary compounds described herein was assessed by CellTiter-Glo® Luminescent cell viability assay (Promega). IC50 values were determined using GRAPHPAD PRISM 6 software. Exemplary results are shown in Table A3, wherein “A” represents a calculated IC50 value of less than 500 nM; “B” represents a calculated IC50 value of greater than or equal to 500 nM and less than 5000 μM; and “C” represents a calculated IC50 value of 5000 μM or greater

For test [3], the system named is HCT116 colorectal carcinoma. In words: Inhibition of cell proliferation (CellTiter-Glo), HCT116. The class given is cell-based. The following applies: Homo sapiens, HCT-116; 72 hours incubation, CellTiter-Glo, 8,000 cells/well. The method, then:
as §2

In the next test the test system is Kelly neuroblastoma. In words: Inhibition of cell proliferation (CellTiter-Glo), Kelly. In kind it is cell-based. The conditions noted are these: 72 hours incubation, CellTiter-Glo, 4,000 cells/well. The procedure: as §2
Test [4] addresses T1, CDK7. Description: Labeling of CDK7 with an inhibitor (CAK complex, nano LC-MS). In kind it is binding. The conditions noted are these: 10-fold molar excess of compound, 6 hrs at 37° C., trypsin digest. The method, then: CAK complex (Millipore cat#14-476) in 40 mM Hepes pH 7.4, 150 mM NaCl, 5% glycerol and 1 mM DTT with protease and phosphatase inhibitors was incubated with a 10-fold molar excess of Compound 101 for 6 hrs at 37° C. Proteins were resolved by SDS-PAGE, bands corresponding to CDK7 were digested in-gel with trypsin, and peptides analyzed by nano LC-MS using an Orbitrap XL mass spectrometer (ThermoFisher Scientific, San Jose, Calif.). Efficiency of labeling was estimated from the reduction in signal of the Cys312 containing peptide […] (SEQ ID NO: 3) compared to DMSO control. Signals from CDK7 peptides VPFLPGDSDLDQLTR (SEQ ID NO: 1) and LDFLGEGQFATVYK were used for normalization. See FIG. 1 for the total ion chromatograms (TIC) and extracted ion chromatograms (EIC) of the CDK7 peptides treated with DMSO (A-D) or Compound 101 (E-H). The labeled peptide was detected by mass spectrometry, as shown in the spectrum of FIG. 2.

T1 sequence (P50613 whole entry): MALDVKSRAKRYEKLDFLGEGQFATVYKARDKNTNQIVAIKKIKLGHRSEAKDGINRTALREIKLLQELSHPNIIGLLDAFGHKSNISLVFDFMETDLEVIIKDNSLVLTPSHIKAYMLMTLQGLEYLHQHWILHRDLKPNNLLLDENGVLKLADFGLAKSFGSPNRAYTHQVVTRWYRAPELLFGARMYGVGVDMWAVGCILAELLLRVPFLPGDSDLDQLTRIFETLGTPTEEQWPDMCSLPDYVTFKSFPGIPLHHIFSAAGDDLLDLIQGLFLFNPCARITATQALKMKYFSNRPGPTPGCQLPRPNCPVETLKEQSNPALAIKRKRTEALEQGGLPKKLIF
T1 sequence (P51946 whole entry partner): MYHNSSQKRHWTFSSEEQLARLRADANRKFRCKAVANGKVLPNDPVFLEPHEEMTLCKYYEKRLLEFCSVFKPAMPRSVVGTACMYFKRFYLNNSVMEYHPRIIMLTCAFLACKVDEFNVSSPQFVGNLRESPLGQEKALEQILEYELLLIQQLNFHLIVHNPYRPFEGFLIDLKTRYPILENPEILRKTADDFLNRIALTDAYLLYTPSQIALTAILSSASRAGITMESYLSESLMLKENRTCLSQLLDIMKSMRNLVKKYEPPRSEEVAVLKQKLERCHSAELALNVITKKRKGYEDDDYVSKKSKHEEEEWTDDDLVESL
T1 sequence (P51948 whole entry partner): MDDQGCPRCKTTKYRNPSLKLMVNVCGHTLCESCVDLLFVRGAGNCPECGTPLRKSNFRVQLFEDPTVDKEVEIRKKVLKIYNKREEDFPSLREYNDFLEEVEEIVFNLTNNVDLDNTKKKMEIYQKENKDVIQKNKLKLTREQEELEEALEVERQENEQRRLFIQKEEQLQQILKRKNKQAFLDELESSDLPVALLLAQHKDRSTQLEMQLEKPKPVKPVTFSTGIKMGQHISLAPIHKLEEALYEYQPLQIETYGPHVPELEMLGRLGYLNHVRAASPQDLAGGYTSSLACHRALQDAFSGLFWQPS
Sequence of RET (P07949 29-1114): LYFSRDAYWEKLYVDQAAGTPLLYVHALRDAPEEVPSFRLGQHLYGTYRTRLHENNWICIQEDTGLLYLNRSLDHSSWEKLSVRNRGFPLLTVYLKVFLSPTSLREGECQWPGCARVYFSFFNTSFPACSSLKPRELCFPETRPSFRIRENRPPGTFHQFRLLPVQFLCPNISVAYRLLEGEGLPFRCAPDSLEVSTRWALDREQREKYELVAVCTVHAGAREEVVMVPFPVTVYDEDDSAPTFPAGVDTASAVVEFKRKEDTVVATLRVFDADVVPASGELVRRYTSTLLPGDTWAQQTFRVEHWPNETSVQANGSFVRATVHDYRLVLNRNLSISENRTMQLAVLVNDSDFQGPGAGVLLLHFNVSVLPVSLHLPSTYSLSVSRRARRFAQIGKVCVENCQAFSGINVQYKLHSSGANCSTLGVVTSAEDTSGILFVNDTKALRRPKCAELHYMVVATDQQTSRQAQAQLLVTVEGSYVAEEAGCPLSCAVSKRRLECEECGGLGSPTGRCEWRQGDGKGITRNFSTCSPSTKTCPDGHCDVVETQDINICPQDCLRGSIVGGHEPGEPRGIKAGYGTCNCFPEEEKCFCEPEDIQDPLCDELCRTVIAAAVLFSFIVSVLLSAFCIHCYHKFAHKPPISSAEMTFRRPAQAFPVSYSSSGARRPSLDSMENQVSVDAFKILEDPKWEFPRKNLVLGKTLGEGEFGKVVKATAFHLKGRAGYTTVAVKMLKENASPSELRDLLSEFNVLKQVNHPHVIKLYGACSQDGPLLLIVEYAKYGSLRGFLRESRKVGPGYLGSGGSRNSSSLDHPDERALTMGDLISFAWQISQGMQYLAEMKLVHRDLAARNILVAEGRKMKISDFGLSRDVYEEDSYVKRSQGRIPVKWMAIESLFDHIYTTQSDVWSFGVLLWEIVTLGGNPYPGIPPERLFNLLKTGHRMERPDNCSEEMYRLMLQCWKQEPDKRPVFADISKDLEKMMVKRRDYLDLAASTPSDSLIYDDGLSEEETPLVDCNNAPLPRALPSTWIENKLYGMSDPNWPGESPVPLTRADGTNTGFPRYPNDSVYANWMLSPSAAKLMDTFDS
Sequence of CDK9 (P50750 whole entry): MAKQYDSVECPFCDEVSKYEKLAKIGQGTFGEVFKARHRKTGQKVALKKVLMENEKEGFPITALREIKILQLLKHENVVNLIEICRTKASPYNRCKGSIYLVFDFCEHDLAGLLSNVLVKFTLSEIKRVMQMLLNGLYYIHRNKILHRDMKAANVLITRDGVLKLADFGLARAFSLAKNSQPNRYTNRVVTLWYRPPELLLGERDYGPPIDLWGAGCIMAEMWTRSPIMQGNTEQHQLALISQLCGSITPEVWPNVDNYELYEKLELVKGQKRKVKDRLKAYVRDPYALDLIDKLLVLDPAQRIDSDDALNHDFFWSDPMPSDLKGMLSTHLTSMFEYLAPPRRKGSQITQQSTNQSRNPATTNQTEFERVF
Sequence of CDK9 (O75909 whole entry partner): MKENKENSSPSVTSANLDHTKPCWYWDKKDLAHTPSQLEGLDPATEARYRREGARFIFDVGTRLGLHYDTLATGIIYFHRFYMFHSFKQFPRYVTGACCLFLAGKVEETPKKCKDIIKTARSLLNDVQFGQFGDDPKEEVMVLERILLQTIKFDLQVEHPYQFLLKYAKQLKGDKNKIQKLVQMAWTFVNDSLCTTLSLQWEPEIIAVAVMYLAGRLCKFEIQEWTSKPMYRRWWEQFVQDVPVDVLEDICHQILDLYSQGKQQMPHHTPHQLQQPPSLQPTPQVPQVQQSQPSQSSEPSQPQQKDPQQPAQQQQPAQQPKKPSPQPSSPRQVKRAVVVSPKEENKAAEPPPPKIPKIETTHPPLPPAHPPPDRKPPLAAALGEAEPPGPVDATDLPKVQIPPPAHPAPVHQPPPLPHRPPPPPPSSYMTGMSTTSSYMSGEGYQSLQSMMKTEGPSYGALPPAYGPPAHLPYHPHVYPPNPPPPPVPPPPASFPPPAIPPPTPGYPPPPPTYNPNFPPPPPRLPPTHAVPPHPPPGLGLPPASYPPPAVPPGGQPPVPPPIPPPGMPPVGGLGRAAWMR
Sequence of FGR (P09769 whole entry): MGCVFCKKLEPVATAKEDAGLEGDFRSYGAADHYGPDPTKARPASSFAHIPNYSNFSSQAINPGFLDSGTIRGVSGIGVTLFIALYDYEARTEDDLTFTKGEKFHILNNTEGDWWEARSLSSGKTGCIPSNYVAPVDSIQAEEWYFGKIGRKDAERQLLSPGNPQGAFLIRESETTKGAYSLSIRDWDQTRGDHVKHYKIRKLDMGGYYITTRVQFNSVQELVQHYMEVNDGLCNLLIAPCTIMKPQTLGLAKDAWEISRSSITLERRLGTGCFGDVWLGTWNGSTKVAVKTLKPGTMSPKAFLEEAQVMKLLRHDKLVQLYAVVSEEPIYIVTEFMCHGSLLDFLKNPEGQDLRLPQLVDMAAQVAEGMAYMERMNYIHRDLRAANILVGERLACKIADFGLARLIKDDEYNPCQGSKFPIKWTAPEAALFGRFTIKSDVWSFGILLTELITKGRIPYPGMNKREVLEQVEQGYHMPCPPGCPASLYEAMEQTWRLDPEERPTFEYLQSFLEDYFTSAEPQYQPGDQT

`C=CC(=O)Nc1ccc(C(=O)Nc2cccc(Nc3n[nH]c4c3CN(C(=O)N[C@H](CN(C)C)c3ccccc3)C4(C)C)c2)cc1` [Compound 101, (S)-3-((3-(4-acrylamidobenzamido)phenyl)amino)-N-(2-(dimethylamino)-1-phenylethyl)-6,6-dimethyl-4,6-dihydropyrrolo[3,4-c]pyrazole-5(1H)-carboxamide]: the pIC50 against CDK7 [1] was above 7.00; at CDK2, at most 6.00; against CDK9 it was at most 6.00; at CHEK2, above 7.00; against FGR, above 7.00; on HIPK4, 6.00 to 7.00. The pIC50 is above 7.00 on PRKCQ; above 7.00 at RET; above 7.00 against SRC; 6.00 to 7.00 against MELK; above 6.30 in test [2]; above 6.30 in [3]. This compound had a pIC50 in the test with Kelly neuroblastoma of 2.30 to 6.30. In addition, at CDK7 [4], the “Covalent labeling of CDK7 peptide detected by mass spectrometry” value is “labeled with Compound 101 at Cys312”.
As for `C=CC(=O)Nc1ccc(C(=O)Nc2ccc(Nc3n[nH]c4c3CN(C(=O)N[C@H](CN(C)C)c3ccccc3)C4(C)C)cc2)cc1` [Compound 102, (S)-3-((4-(4-acrylamidobenzamido)phenyl)amino)-N-(2-(dimethylamino)-1-phenylethyl)-6,6-dimethyl-4,6-dihydropyrrolo[3,4-c]pyrazole-5(1H)-carboxamide], the pIC50 is above 7.00 at CDK7 [1] and at most 2.30 with Kelly neuroblastoma.
As for `CCC(=O)Nc1ccc(C(=O)Nc2cccc(Nc3n[nH]c4c3CN(C(=O)N[C@H](CN(C)C)c3ccccc3)C4(C)C)c2)cc1` [Compound 104, (S)-N-(2-(dimethylamino)-1-phenylethyl)-6,6-dimethyl-3-((3-(4-propionamidobenzamido)phenyl)amino)-4,6-dihydropyrrolo[3,4-c]pyrazole-5(1H)-carboxamide], the pIC50 against CDK7 [1] is above 7.00; in test [2] it was 2.30 to 6.30; in test [3], 2.30 to 6.30.
For `C=CC(=O)Nc1ccc(C(=O)Nc2cccc(Nc3n[nH]c4c3CN(C(=O)NCCN(C)C)C4(C)C)c2)cc1` [Compound 106, 3-((3-(4-acrylamidobenzamido)phenyl)amimo)-N-(2-(dimethylamino)ethyl)-6,6-dimethyl-4,6-dihydropyrrolo[3,4-c]pyrazole-5(1H)-carboxamide], the pIC50 against CDK7 [1] is 6.00 to 7.00; against MELK it was 6.00 to 7.00; in the test on Kelly neuroblastoma, at most 2.30.
As for `C=CC(=O)Nc1ccc(C(=O)Nc2cccc(Nc3n[nH]c4c3CN(C(=O)N3CCN(C)CC3)C4(C)C)c2)cc1` [Compound 107, 4-acrylamido-N-(3-((6,6-dimethyl-5-(4-methylpiperazine-1-carbonyl)-1,4,5,6-tetrahydropyrrolo[3,4-c]pyrazol-3-yl)amino)phenyl)benzamide], the pIC50 at CDK7 [1] is above 7.00; in [2], 2.30 to 6.30.
Take `C=CC(=O)Nc1ccc(C(=O)Nc2cccc(C(=O)Nc3n[nH]c4c3CN(C(=O)N[C@H](CN(C)C)c3ccccc3)C4(C)C)c2)cc1` [Compound 112, (S)-3-(3-(4-acrylamidobenzamido)benzamido)-N-(2-(dimethylamino)-1-phenylethyl)-6,6-dimethyl-4,6-dihydropyrrolo[3,4-c]pyrazole-5(1H)-carboxamide]: the pIC50 is above 7.00 at CDK7 [1] and 2.30 to 6.30 in the test on Kelly neuroblastoma.
